In the supplement of paper PMC11451515:

System: P12-Ichikawa
Experiment: cell viability relative to DMSO control; higher = less cytotoxic
Conditions: 48 h
Summary of the method: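 Viability is expressed as a percentage of DMSO wells within each plate, and cell-free wells serve as background. Seeding densities in the 1536-well plates (5 μl) were 500 cells/well for NOMO1 or SEM leukemia cells and 1000 cells/well for P12-Ichikawa. Each line was adapted for at least four passages in each medium. Library compounds in DMSO were pin-dosed at 47 μM to 0.79 nM (11 points, threefold), and CellTiter-Glo One luminescence was read after 48 h at 37°C.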

[1] = HPLM + 10% dialyzed FBS, 0.000781 µM
[2] = HPLM + 10% dialyzed FBS, 0.00234 µM
[3] = HPLM + 10% dialyzed FBS, 0.00702 µM
[4] = HPLM + 10% dialyzed FBS, 0.0211 µM
[5] = HPLM + 10% dialyzed FBS, 0.0632 µM
[6] = HPLM + 10% dialyzed FBS, 0.19 µM
[7] = HPLM + 10% dialyzed FBS, 0.569 µM
[8] = HPLM + 10% dialyzed FBS, 1.71 µM
[9] = HPLM + 10% dialyzed FBS, 5.12 µM
[10] = HPLM + 10% dialyzed FBS, 15.4 µM
[11] = HPLM + 10% dialyzed FBS, 46.1 µM
[12] = RPMI 5 mM glucose + 10% FBS, 0.000781 µM
[13] = RPMI 5 mM glucose + 10% FBS, 0.00234 µM
[14] = RPMI 5 mM glucose + 10% FBS, 0.00702 µM
[15] = RPMI 5 mM glucose + 10% FBS, 0.0211 µM
[16] = RPMI 5 mM glucose + 10% FBS, 0.0632 µM
[17] = RPMI 5 mM glucose + 10% FBS, 0.19 µM
[18] = RPMI 5 mM glucose + 10% FBS, 0.569 µM
[19] = RPMI 5 mM glucose + 10% FBS, 1.71 µM
[20] = RPMI 5 mM glucose + 10% FBS, 5.12 µM
[21] = RPMI 5 mM glucose + 10% FBS, 15.4 µM
[22] = RPMI 5 mM glucose + 10% FBS, 46.1 µM
[23] = RPMI 5 mM glucose + 10% dialyzed FBS, 0.000781 µM
[24] = RPMI 5 mM glucose + 10% dialyzed FBS, 0.00234 µM
[25] = RPMI 5 mM glucose + 10% dialyzed FBS, 0.00702 µM
[26] = RPMI 5 mM glucose + 10% dialyzed FBS, 0.0211 µM
[27] = RPMI 5 mM glucose + 10% dialyzed FBS, 0.0632 µM
[28] = RPMI 5 mM glucose + 10% dialyzed FBS, 0.19 µM
[29] = RPMI 5 mM glucose + 10% dialyzed FBS, 0.569 µM
[30] = RPMI 5 mM glucose + 10% dialyzed FBS, 1.71 µM
[31] = RPMI 5 mM glucose + 10% dialyzed FBS, 5.12 µM
[32] = RPMI 5 mM glucose + 10% dialyzed FBS, 15.4 µM
[33] = RPMI 5 mM glucose + 10% dialyzed FBS, 46.1 µM

| Structure (SMILES) | cell viability [1] [%] | cell viability [2] [%] | cell viability [3] [%] | cell viability [4] [%] | cell viability [5] [%] | cell viability [6] [%] | cell viability [7] [%] | cell viability [8] [%] | cell viability [9] [%] | cell viability [10] [%] | cell viability [11] [%] | cell viability [12] [%] | cell viability [13] [%] | cell viability [14] [%] | cell viability [15] [%] | cell viability [16] [%] | cell viability [17] [%] | cell viability [18] [%] | cell viability [19] [%] | cell viability [20] [%] | cell viability [21] [%] | cell viability [22] [%] | cell viability [23] [%] | cell viability [24] [%] | cell viability [25] [%] | cell viability [26] [%] | cell viability [27] [%] | cell viability [28] [%] | cell viability [29] [%] | cell viability [30] [%] | cell viability [31] [%] | cell viability [32] [%] | cell viability [33] [%] |
| --- | --- | --- | --- | --- | --- | --- | --- | --- | --- | --- | --- | --- | --- | --- | --- | --- | --- | --- | --- | --- | --- | --- | --- | --- | --- | --- | --- | --- | --- | --- | --- | --- | --- |
| O=C1c2c(O)cccc2[C@H]([C@@H]2O[C@H](CO)[C@@H](O)[C@H](O)[C@H]2O)c2cc(CO)cc(O)c21 | 91 | 95.8 | 95.1 | 107 | 107 | 98.7 | 106 | 99.4 | 103 | 98.4 | 103 | 93.9 | 93.3 | 102 | 109 | 105 | 109 | 108 | 106 | 101 | 106 | 106 | 91 | 96.4 | 90.9 | 96.8 | 106 | 95.2 | 97 | 95.7 | 103 | 99.4 | 99 |
| NC(=O)c1ccc(-c2nc(-c3ccc4c(c3)OCCO4)c(-c3ccccn3)[nH]2)cc1 | 120 | 125 | 125 | 118 | 122 | 119 | 124 | 122 | 117 | 117 | 111 | 122 | 126 | 115 | 129 | 117 | 115 | 118 | 131 | 116 | 114 | 110 | 121 | 114 | 120 | 126 | 126 | 121 | 121 | 110 | 127 | 117 | 106 |
| COc1cc(N2CCC(C(N)=O)CC2)ccc1Nc1nc(N)c(Cl)c(Nc2ccccc2[S+](=O)([O-])C(C)C)n1 | 88.6 | 97.4 | 102 | 95.2 | 111 | 106 | 108 | 104 | 96.9 | 84.1 | 3.45 | 81.9 | 102 | 101 | 107 | 103 | 98.1 | 99.9 | 95.9 | 77.8 | 64.6 | 2.33 | 91.3 | 104 | 98.8 | 94.7 | 103 | 97.9 | 100 | 88 | 74.9 | 54.9 | 4.65 |
| CC[C@H]1OC(=O)[C@H](C)[C@@H](O[C@H]2C[C@@](C)(OC)[C@@H](O)[C@H](C)O2)[C@H](C)[C@@H](O[C@@H]2O[C@@H](C)C[C@H](N(C)C)[C@H]2O)[C@](C)(O)C[C@@H](C)C(=O)[C@H](C)[C@@H](O)[C@]1(C)O | 83.8 | 88.3 | 94.6 | 98.3 | 91.2 | 89.9 | 97.9 | 94.6 | 84 | 57.4 | 18.4 | 84.9 | 87 | 85.6 | 91.3 | 87.6 | 90 | 91.7 | 87.8 | 87.3 | 91.8 | 13.6 | 88.4 | 84.3 | 88.7 | 91.8 | 84.1 | 93.4 | 89.3 | 92.9 | 89.8 | 88.4 | 28 |
| O=C(O)c1ccc2cc(-c3ccc(O)c(C45CC6CC(CC(C6)C4)C5)c3)ccc2c1 | 124 | 119 | 124 | 121 | 121 | 107 | 66.5 | 19.2 | 10.4 | 9.2 | 7.25 | 116 | 123 | 134 | 122 | 117 | 96.9 | 57.1 | 16 | 8.71 | 8.22 | 5.78 | – | – | – | – | – | – | – | – | – | – | – |
| CNC(=O)[C@H](Cc1ccccc1)NC(=O)[C@H](CC(C)C)[C@H](CSc1cccs1)C(=O)NO | 86.3 | 86.4 | 86.3 | 98.3 | 87.4 | 95.1 | 89.7 | 82.9 | 81.9 | 73.8 | 66.8 | 83.3 | 87.2 | 78.9 | 87 | 78 | 82.8 | 88.1 | 82.9 | 71 | 59.2 | 52.6 | 85.3 | 89.7 | 82.2 | 88.3 | 84.3 | 91 | 90.1 | 79.5 | 72.5 | 63.5 | 53 |
| COc1cc2c(Nc3ccc(NC(=O)c4ccccc4)cc3)ncnc2cc1OCCCN1CCOCC1 | 116 | 123 | 122 | 125 | 131 | 133 | 135 | 125 | 45 | 15 | 15.6 | – | – | – | – | – | – | – | – | – | – | – | – | – | – | – | – | – | – | – | – | – | – |
| COc1ccc(Cc2nccc3cc(OC)c(OC)cc23)cc1OC | 122 | 120 | 117 | 120 | 125 | 122 | 119 | 116 | 115 | 107 | 96.5 | – | – | – | – | – | – | – | – | – | – | – | 121 | 114 | 126 | 126 | 123 | 126 | 121 | 119 | 105 | 111 | 78.5 |
